Test results taken from paper PMC10385664, “Projection of Target Drug Particle Size in Oral Formulations Using the Refined Developability Classification System (rDCS)” (Pharmaceutics, 2023).

System: Caco-2 cells
Assay: Caco-2 permeability assay (pH 6.5/7.4 gradient, ± elacridar)
Details: Caco-2, 10 µM, apical pH 6.5 / basolateral pH 7.4, 120 min, without inhibitor
Description: In vitro permeability studies were performed at Cyprotex Discovery Ltd. (Macclesfield, UK) using a high-throughput Caco-2 permeability assay. Permeability at 37 °C was assessed from the apical to basolateral side (A⟹B) and in opposite direction (B⟹A) applying a pH gradient with pH 6.5 in the apical and pH 7.4 in the basolateral compartment (Hanks Balanced Salt Solution, HBSS). After an incubation of 120 min, samples were diluted for analysis via liquid chromatography coupled with tandem mass spectrometry (LC-MS/MS). […] Experiments were performed in absence and presence of the P-glycoprotein (P-gp) inhibitor elacridar (10 µM) to study transporter-mediated efflux effects. The dosing solutions contained the API (10 µM) in HBSS, and DMSO in a concentration of ≤1% v/v. Lucifer yellow (100 µM) was included as fluorescent integrity marker. Further experimental details are provided in Supplementary Materials.
The apparent permeability coefficients (Papp) were calculated according to Equation (27):(27) Papp=dQ/dt/C0·A where dQ/dt is the permeation rate of the API across the cell monolayer, C0 is the starting concentration of the API in the dosing solution and A is the surface area of the cell monolayer. The efflux ratios (ERs) were calculated from the B⟹A and A⟹B Papp values to estimate whether P-gp mediated efflux was involved in the transport of the APIs. The mass balance (% recovery) was calculated from the sum of the API recovered from the acceptor and donor compartments at the end of the experiment, divided by the initial donor amount.
Table S6. Gradient of the UPLC method for analysis of lemborexant.
Table S7. Gradient of the UPLC method for analysis of istradefylline.
S.2.5. rDCS Standard Investigations: Caco‐2 permeability studies
Caco‐2 cells were obtained from the American Type Culture Collection (ATCC, Manassas, VA, USA) and used between passage numbers 40 to 60. The cells were seeded onto Millipore Multiscreen Transwell plates at a density of 1 x 10^5 cells/cm2 and cultured in Dulbeccoʹs Modified Eagleʹs Medium (DMEM). The medium was changed every two or three days. Ce l l culture was carried out at 37 °C in an atmosphere of 5 % CO2 with a relative humidity of 95 %. The permeability assay was performed on day 20.
In vitro permeability was assessed wit h a high‐throughput Caco‐2 permeability assay. The assay was prepared by rinsing apical and basolateral monolayer surfaces twice with Hanks Balanced Salt Solution (HBSS) at the desired pH and 37 °C. Subsequently, cells in the apical and basolateral compartments were incubated with HBSS at the desired pH for 40 min. A pH gradient with pH 6.5 in the apical compartment and pH 7.4 in the basolateral compartment was applied. Dosing solutions containing the API (10 μ M) were prepared by diluting a concentrated API solution in DMS O with HBSS. The final DMSO concentration was ≤ 1% v/v. Lucifer yellow (100 μM) was included in the dosing solution as fluorescent integrity marker. For the assessment of the permeability from the apical to basolateral side (A⟹B), HBSS in the apical compartment was replaced with the dosing solution. The apical inserts were placed into a companion plat e containing fresh buffer with 1% v/ v DMSO. For the assessment of the permeability from the basolateral to […]
apical side (B⟹A), HBSS was removed from the companion plate and replaced with the solution of drug in HBSS. Fresh HBSS was added to the apical insert, which was then placed into the companion plate.
Experiments were performed in absence and presence of the P‐glycoprotein (P‐gp) inhibitor elacridar (10 μM) to study transporter‐mediated efflux effects. In those experiments, elacridar was included in both compartments during the equilibration time and assay. The starting concentration (C0) was confirmed by sampling from the dosing solution immediately before dosing into the cell pl ates. After incubation of 120 minutes, the apical inserts and companion plates were separated for sampling from both compartments.

With `CC(C)NCC(O)COc1cccc2ccccc12` (stereo not shown) [propranolol] the “Papp(A⟹B)” value was 13.0 ± 0.7 ×10^−6 cm/s.
